Results taken from patent US9243001B2, “Substituted benzene compounds” (Epizyme, Inc., priority 2013, dated 2016).
pIC50: −log10 of the molar value.

Biological target: T1, wild-type EZH2 (PRC2 enzyme) (Homo sapiens, UniProt Q15910)
T1 construct: made in house; host or cells: Spodoptera frugiperda (sf9) cells, baculovirus
Test: PRC2 enzyme assay on peptide substrates (wild-type EZH2)
Type: biochemical
Conditions: wild-type PRC2 enzyme 4 nM, H3K27me0 peptide substrate, 3H-SAM Flashplate; read-out: WT EZH2 IC50
Excerpt: General Materials. S-adenosylmethionine (SAM), S-adenosylhomocyteine (SAH), bicine, KCl, Tween20, dimethylsulfoxide (DMSO) and bovine skin gelatin (BSG) were purchased from Sigma-Aldrich at the highest level of purity possible. Dithiothreitol (DTT) was purchased from EMD Millipore. ^3H-SAM was purchased from American Radiolabeled Chemicals with a specific activity of 80 Ci/mmol. 384-well streptavidin Flashplates were purchased from PerkinElmer.
Substrates. Peptides representative of human histone H3 residues 21- 44 containing either an unmodified lysine 27 (H3K27me0) or dimethylated lysine 27 (H3K27me2) are synthesized with a C-terminal G(K-biotin) linker-affinity tag motif and a C-terminal amide cap by 21st Century Biochemicals. The peptides are high-performance liquid chromatography (HPLC) purified to greater than 95% purity and confirmed by liquid chromatography mass spectrometry (LC-MS). The sequences are listed below.
Recombinant PRC2 Enzymes. Human PRC2 enzymes were purified as 4-component enzyme complexes co-expressed in Spodoptera frugiperda (sf9) cells using a baculovirus expression system. The subunits expressed were wild-type EZH2 (NM_004456) or EZH2 Y641F, N, H, S or C mutants generated from the wild-type EZH2 construct, EED (NM_003797), Suz12 (NM_015355) and RbAp48 (NM_005610). The EED subunit contained an N-terminal FLAG tag that was used to purify the entire 4-component complex from sf9 cell lysates. The purity of the complexes met or exceeded 95% as determined by SDS-PAGE and Agilent Bioanalyzer analysis. Concentrations of enzyme stock concentrations (generally 0.3-1.0 mg/mL) was determined using a Bradford assay against a bovine serum albumin (BSA) standard.
General Procedure for PRC2 Enzyme Assays on Peptide Substrates. The assays were all performed in a buffer consisting of 20 mM bicine (pH=7.6), 0.5 mM DTT, 0.005% BSG and 0.002% Tween20, prepared on the day of use. Compounds in 100% DMSO (1 μL) were spotted into polypropylene 384-well V-bottom plates (Greiner) using a Platemate 2×3 outfitted with a 384-channel pipet head (Thermo). DMSO (1 μL) was added to columns 11, 12, 23, 24, rows A -H for the maximum signal control, and SAH, a known product and inhibitor of PRC2 (1 μL) was added to columns 11,12, 23, 24, rows I -P for the minimum signal control. A cocktail (40 μL) containing the wild-type PRC2 enzyme and H3K27me0 peptide or any of the Y641 mutant enzymes and H3K27me2 peptide was added by Multidrop Combi (Thermo). The compounds were allowed to incubate with PRC2 for 30 min at 25° C., then a cocktail (10 μL) containing a mixture of non-radioactive and ^3H-SAM was added to initiate the reaction (final volume=51 μL). In all cases, the final concentrations were as follows: wild-type or mutant PRC2 enzyme was 4 nM, SAH in the minimum signal control wells was 1 mM and the DMSO concentration was 1%. The assays were stopped by the addition of non-radioactive SAM (10 μL) to a final concentration of 600 μM, which dilutes the ^3H-SAM to a level where its incorporation into the peptide substrate is no longer detectable. 50 μL of the reaction in the 384-well polypropylene plate was then transferred to a 384-well Flashplate and the biotinylated peptides were allowed to bind to the streptavidin surface for at least 1 h before being washed three times with 0.1% Tween20 in a Biotek ELx405 plate washer. The plates were then read in a PerkinElmer TopCount platereader to measure the quantity of ^3H-labeled peptide bound to the Flashplate surface, measured as disintegrations per minute (dpm) or alternatively, referred to as counts per minute (cpm).
Where dpm=disintegrations per minute, cmpd=signal in assay well, and min and max are the respective minimum and maximum signal controls.
Where top and bottom are the normally allowed to float, but may be fixed at 100 or 0 respectively in a 3-parameter fit. The Hill Coefficient normally allowed to float but may also be fixed at 1 in a 3-parameter fit. […]

T1 sequence (Q15910 1-751 isoform Q15910-2): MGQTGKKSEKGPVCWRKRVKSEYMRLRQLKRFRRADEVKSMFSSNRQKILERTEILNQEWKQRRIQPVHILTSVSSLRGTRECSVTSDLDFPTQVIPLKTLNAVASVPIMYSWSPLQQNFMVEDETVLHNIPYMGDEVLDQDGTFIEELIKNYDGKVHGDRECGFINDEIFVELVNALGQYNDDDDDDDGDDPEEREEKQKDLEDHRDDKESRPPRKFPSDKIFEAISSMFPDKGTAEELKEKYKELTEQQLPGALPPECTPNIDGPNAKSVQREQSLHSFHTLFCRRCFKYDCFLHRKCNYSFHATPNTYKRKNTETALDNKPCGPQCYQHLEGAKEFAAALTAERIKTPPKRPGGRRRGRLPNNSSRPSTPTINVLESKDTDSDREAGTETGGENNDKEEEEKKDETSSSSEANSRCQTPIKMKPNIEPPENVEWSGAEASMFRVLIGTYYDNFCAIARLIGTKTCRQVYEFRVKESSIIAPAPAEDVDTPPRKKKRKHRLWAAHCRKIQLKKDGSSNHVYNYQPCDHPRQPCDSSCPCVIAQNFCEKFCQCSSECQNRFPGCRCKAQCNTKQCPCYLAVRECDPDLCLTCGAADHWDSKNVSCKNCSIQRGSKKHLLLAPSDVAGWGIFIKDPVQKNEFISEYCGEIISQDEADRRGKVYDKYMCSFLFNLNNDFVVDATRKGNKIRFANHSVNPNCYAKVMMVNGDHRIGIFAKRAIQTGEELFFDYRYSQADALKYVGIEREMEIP
T1 sequence (O75530 whole entry partner): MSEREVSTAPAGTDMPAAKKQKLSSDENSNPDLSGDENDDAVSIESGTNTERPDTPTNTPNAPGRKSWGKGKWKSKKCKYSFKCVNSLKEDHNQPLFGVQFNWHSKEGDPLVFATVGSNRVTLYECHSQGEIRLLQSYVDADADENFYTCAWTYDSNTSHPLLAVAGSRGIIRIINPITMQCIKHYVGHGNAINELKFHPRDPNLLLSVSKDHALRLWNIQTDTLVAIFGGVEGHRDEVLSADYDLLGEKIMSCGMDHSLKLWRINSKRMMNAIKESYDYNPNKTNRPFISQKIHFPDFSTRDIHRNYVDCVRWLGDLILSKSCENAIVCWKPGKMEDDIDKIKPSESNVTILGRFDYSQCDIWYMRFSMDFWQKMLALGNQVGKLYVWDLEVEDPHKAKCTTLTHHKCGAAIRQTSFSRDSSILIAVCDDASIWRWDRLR
T1 sequence (Q15022 whole entry partner): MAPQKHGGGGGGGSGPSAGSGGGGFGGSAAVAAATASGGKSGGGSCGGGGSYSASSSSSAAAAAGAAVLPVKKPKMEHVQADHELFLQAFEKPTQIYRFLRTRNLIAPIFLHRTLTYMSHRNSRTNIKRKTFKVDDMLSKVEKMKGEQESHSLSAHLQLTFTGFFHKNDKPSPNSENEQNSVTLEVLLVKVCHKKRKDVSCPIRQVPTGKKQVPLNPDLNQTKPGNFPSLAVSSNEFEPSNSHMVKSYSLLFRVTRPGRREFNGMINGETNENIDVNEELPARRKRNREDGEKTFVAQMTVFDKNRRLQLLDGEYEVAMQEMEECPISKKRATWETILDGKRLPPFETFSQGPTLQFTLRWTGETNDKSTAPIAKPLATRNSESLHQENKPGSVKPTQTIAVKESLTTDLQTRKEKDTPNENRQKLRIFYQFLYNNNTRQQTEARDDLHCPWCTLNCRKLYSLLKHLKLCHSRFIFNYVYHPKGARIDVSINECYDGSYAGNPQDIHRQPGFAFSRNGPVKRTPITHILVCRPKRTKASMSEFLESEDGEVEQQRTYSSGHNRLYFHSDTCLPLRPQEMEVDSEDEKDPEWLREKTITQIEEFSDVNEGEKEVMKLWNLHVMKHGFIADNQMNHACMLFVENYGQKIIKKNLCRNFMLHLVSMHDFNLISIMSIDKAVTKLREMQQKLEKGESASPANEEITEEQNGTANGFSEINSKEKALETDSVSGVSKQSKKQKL
T1 sequence (Q09028 whole entry partner): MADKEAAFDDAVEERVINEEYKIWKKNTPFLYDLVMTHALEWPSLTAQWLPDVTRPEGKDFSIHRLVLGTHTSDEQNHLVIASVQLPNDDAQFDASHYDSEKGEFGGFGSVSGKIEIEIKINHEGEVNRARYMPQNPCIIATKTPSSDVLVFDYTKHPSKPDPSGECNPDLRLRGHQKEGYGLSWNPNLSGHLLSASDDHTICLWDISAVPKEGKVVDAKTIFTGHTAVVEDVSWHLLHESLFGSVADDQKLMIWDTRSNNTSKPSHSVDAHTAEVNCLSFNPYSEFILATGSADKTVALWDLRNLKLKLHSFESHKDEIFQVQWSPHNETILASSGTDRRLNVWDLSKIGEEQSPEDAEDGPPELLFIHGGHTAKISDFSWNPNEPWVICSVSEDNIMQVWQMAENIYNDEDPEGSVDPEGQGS

Compound	pIC50
CCN(c1cc(Cl)cc(C(=O)NCCc2nccs2)c1C)[C@H]1CC[C@H](N(C)C)CC1 [Compound 12, 5-chloro-3-(((trans)-4-(dimethylamino)cyclohexyl)(ethyl)amino)-2-methyl-N-(2-(thiazol-2-yl)ethyl)benzamide]	< 4.30
CCN(c1cc(Cl)cc(C(=O)NCc2nccn2C)c1C)[C@H]1CC[C@H](N(C)C)CC1 [Compound 16, 5-chloro-3-(((tans)-4-(dimethylamino)cyclohexyl)(ethyl)amino)-2-methyl-N-((1-methyl-1H-imidazol-2-yl)methyl)benzamide]	5.51
CCN(c1cc(Cl)cc(C(=O)NCCc2nc3ccccc3s2)c1C)[C@H]1CC[C@H](N(C)C)CC1 [Compound 13, N-(2-(benzo[d]thiazol-2-yl)ethyl)-5-chloro-3-(((trans)-4-(dimethylamino)cyclohexyl)(ethyl)amino)-2-methylbenzamide]	4.42
CCN(c1cc(Cl)cc(C(=O)NCCc2nccn2C)c1C)[C@H]1CC[C@H](N(C)C)CC1 [Compound 8, 5-chloro-3-(((trans)-4-(dimethylamino)cyclohexyl)(ethyl)amino)-2-methyl-N-(2-(1-methyl-1H-imidazol-2-yl)ethyl)benzamide]	4.92
CCN(c1cc(Cl)cc(C(=O)NCc2ccc(C)c3cn(C)nc23)c1C)C1CCC(N(C)C)CC1 (stereo not drawn) [Compound 4, 5-chloro-N-((2,4-dimethyl-2H-indazol-7-yl)methyl)-3-(((1s,4s)-4-(dimethylamino)cyclohexyl)(ethyl)amino)-2-methylbenzamide]	5.29
CCN(c1cc(Cl)cc(C(=O)NCc2nccn2C(C)C)c1C)[C@H]1CC[C@H](N(C)C)CC1 [Compound 18, 5-chloro-3-(((trans)-4-(dimethylamino)cyclohexyl)(ethyl)amino)-N-((1-isopropyl-1H-imidazol-2-yl)methyl)-2-methylbenzamide]	< 5.00
CCN(c1cc(Cl)cc(C(=O)NCCc2nc3ccccc3n2C)c1C)[C@H]1CC[C@H](N(C)C)CC1 [Compound 11, 5-chloro-3-(((trans)-4-(dimethylamino)cyclohexyl)(ethyl)amino)-2-methyl-N-(2-(1-methyl-1H-benzo[d]imidazol-2-yl)ethyl)benzamide]	< 4.30
CCN(c1cc(Cl)cc(C(=O)NCc2nccn2Cc2ccccc2)c1C)[C@H]1CC[C@H](N(C)C)CC1 [Compound 17, N-((1-benzyl-1H-imidazol-2-yl)methyl)-5-chloro-3-(((1r,4r)-4-(dimethylamino)cyclohexyl)(ethyl)amino)-2-methylbenzamide]	5.52
CCN(c1cc(Cl)cc(C(=O)NCc2cccc3cn(C)nc23)c1C)[C@H]1CC[C@H](N(C)C)CC1 [Compound 6, 5-chloro-3-(((trans)-4-(dimethylamino)cyclohexyl)(ethyl)amino)-2-methyl-N-((2-methyl-2H-indazol-7-yl)methyl)benzamide]	< 5.00
CCN(c1cc(Cl)cc(C(=O)NCc2c(C)ccc3cn(C)nc23)c1C)[C@H]1CC[C@H](N(C)C)CC1 [Compound 5, 5-chloro-N-((2,6-dimethyl-2H-indazol-7-yl)methyl)-3-(((trans)-4-(dimethylamino)cyclohexyl)(ethyl)amino)-2-methylbenzamide]	< 5.00
CCN(c1cc(Cl)cc(C(=O)NCc2ncc(C)[nH]2)c1C)[C@H]1CC[C@H](N(C)C)CC1 [Compound 20, 5-chloro-3-(((trans)-4-(dimethylamino)cyclohexyl)(ethyl)amino)-2-methyl-N-((5-methyl-1H-imidazol-2-yl)methyl)benzamide]	< 5.00
CCN(c1cc(Cl)cc(C(=O)NCc2cccn3ccnc23)c1C)[C@H]1CC[C@H](N(C)C)CC1 [Compound 3, 5-chloro-3-(((trans)-4-(dimethylamino)cyclohexyl)(ethyl)amino)-N-(imidazo[1,2-a]pyridin-8-ylmethyl)-2-methylbenzamide]	5.66
CCN(c1cc(Cl)cc(C(=O)NCc2cccc3ccnn23)c1C)[C@H]1CC[C@H](N(C)C)CC1 [Compound 7, 5-chloro-3-(((trans)-4-(dimethylamino)cyclohexyl)(ethyl)amino)-2-methyl-N-(pyrazolo[1,5-a]pyridin-7-ylmethyl)benzamide]	< 5.00
CCN(c1cc(Cl)cc(C(=O)NCCc2ncc[nH]2)c1C)[C@H]1CC[C@H](N(C)C)CC1 [Compound 10, N-(2-(1H-imidazol-2-yl)ethyl)-5-chloro-3-(((trans)-4-(dimethylamino)cyclohexyl)(ethyl)amino)-2-methylbenzamide]	5.69
CCN(c1cc(Cl)cc(C(=O)NCCc2nc3ccccc3[nH]2)c1C)[C@H]1CC[C@H](N(C)C)CC1 [Compound 21, N-(2-(1H-benzo[d]imidazol-2-yl)ethyl)-5-chloro-3-(((1r,4r)-4-(dimethylamino)cyclohexyl)(ethyl)amino)-2-methylbenzamide]	4.43
CCN(c1cc(Cl)cc(C(=O)NCc2c(C)ccn3ccnc23)c1C)[C@H]1CC[C@H](N(C)C)CC1 [Compound 2, 5-chloro-3-(((trans)-4-(dimethylamino)cyclohexyl)(ethyl)amino)-2-methyl-N-((7-methylimidazo[1,2-a]pyridin-8-yl)methyl)benzamide]	5.86

The remaining lines, values ahead:

pIC50	Compound
6.49	CCN(c1cc(Cl)cc(C(=O)NCc2c[nH]cn2)c1C)C1CCOCC1 [Compound 30, N-((1H-imidazol-4-yl)methyl)-5-chloro-3-(ethyl(tetrahydro-2H-pyran-4-yl)amino)-2-methylbenzamide]
4.83	CCN(c1cc(Cl)cc(C(=O)NCc2ccn(C)n2)c1C)C1CCOCC1 [Compound 28, 5-chloro-3-(ethyl(tetrahydro-2H-pyran-4-yl)amino)-2-methyl-N-((1-methyl-1H-pyrazol-3-yl)methyl)benzamide]
< 4.30	CCN(c1cc(Cl)cc(C(=O)NCc2cc(C)on2)c1C)C1CCOCC1 [Compound 29, 5-chloro-3-(ethyl(tetrahydro-2H-pyran-4-yl)amino)-2-methyl-N-((5-methylisoxazol-3-yl)methyl)benzamide]
< 4.30	CCN(c1cc(Cl)cc(C(=O)NCc2cncn2C)c1C)C1CCOCC1 [Compound 22, 5-chloro-3-(ethyl(tetrahydro-2H-pyran-4-yl)amino)-2-methyl-N-((1-methyl-1H-imidazol-5-yl)methyl)benzamide]
< 4.30	CCN(c1cc(Cl)cc(C(=O)NCc2cn3ccsc3n2)c1C)C1CCOCC1 [Compound 26, 5-chloro-3-(ethyl(tetrahydro-2H-pyran-4-yl)amino)-N-(imidazo[2,1-b]thiazol-6-ylmethyl)-2-methylbenzamide]
< 4.30	CCN(c1cc(Cl)cc(C(=O)NCc2cnn(C)c2C)c1C)C1CCOCC1 [Compound 27, 5-chloro-N-((1,5-dimethyl-1H-pyrazol-4-yl)methyl)-3-(ethyl(tetrahydro-2H-pyran-4-yl)amino)-2-methylbenzamide]
< 4.30	CCN(c1cc(Cl)cc(C(=O)NCc2nccs2)c1C)C1CCOCC1 [Compound 24, 5-chloro-3-(ethyl(tetrahydro-2H-pyran-4-yl)amino)-2-methyl-N-(thiazol-2-ylmethyl)benzamide]
4.63	CCN(c1cc(Cl)cc(C(=O)NCc2nccn2C)c1C)C1CCOCC1 [Compound 23, 5-chloro-3-(ethyl(tetrahydro-2H-pyran-4-yl)amino)-2-methyl-N-((1-methyl-1H-imidazol-2-yl)methyl)benzamide]
